Test results from article PMC6213309, “Antibacterial Activity and Mechanism of Action of Bovine Lactoferricin Derivatives with Symmetrical Amino Acid Sequences” (International Journal of Molecular Sciences, 2018).
Read-outs that look alike come from different tables or passages of the source. Ends that are not written are not given here.

Experiments:
E. coli UB 1005 = type: cell-based
Method: (§2) The antimicrobial activity of the peptides were defined as the minimum inhibitory concentrations (MIC) according to the Clinical and Laboratory Standards Institute broth microdilution method as described previously [47]. Briefly, 50 μL two-fold serial dilutions of peptides (with final concentrations ranging from 0 μM to 256 μM) and 50 μL bacterial fluids diluted with MHB were added to 96-well microtiter plates. The plates were then incubated at 37 °C for 18 h.

[1] = tested on: Salmonella pullorum C 7913; type: cell-based; details: 18 h
E. coli ATCC25922 = details: for MIC after Trypsin: peptide treated with 1 mg/mL trypsin
Method: (§1) The antimicrobial activity of the peptides were defined as the minimum inhibitory concentrations (MIC) according to the Clinical and Laboratory Standards Institute broth microdilution method as described previously. Briefly, 50 μL two-fold serial dilutions of peptides (with final concentrations ranging from 0 μM to 256 μM) and 50 μL bacterial fluids diluted with MHB were added to 96-well microtiter plates. The plates were then incubated at 37 °C for 18 h.
We assessed the salt stability, thermal stability, and enzymatic stability of the AMPs. Briefly, E. coli ATCC25922 was selected as the test bacterium. The control group was untreated peptides. Different concentrations of salts (150 mM NaCl, 4.5 mM KCl, 6 μM NH4Cl, 1 mM MgCl2, […], 8 mM […], 2.5 mM CaCl2, and 4 mM FeCl3) were added to the incubation buffer to examine the effect of each salt on the antimicrobial activities of the peptides. AMPs were treated for 1 h at 100 °C to test the thermal stability. AMPs were also treated with trypsin, pepsin, papain, and protease K at a concentration of 1 mg/mL for 1 h at 37 °C to test enzyme stability.

S. aureus ATCC 25923 = type: cell-based
[2] = tested on: Salmonella typhimurium ATCC 14028; type: cell-based
Method: as §2

[3] = tested on: Salmonella enterica subsp. CMCC 50071; details: MHB, 37 °C, 18 h, peptides 0-256 μM, triplicate samples
Method: as §1

[4] = tested on: human red blood cells (hRBCs); test: Hemolytic activity; type: cell-based; details: lowest concentration causing 5% hemolysis of hRBCs; 1% hRBCs in PBS pH 7.2, 37 °C, 1 h, absorbance 570 nm
Method: Hemolytic activity against human red blood cells (hRBCs) was determined as described before. Briefly, 1 mL of fresh hRBCs was centrifuged in PBS (pH 7.2). After washing two times, the hRBCs were resuspended with PBS at a concentration of 1%. Next, 50 μL of the hRBCs solution was added to 50 μL PBS containing two-fold serial dilutions of peptides in each well. The plates were then incubated at 37 °C for 1 h and centrifuged at 1000× g for 5 min. The supernatants were removed, and the release of hemoglobin was determined by measuring the absorbance at 570 nm using a microplate reader (Bio-Rad, Hercules CA, USA). Erythrocyte suspensions in PBS and 0.1% Triton X-100 were used as negative and positive controls, respectively. Melittin was the control peptide.

[5] = tested on: Salmonella typhimurium C 7731; type: cell-based
Method: as §2

E. coli ATCC 25922 = type: cell-based
Method: as §2

[6] = tested on: S. epidermidis ATCC 12228; type: cell-based
Method: as §2

S. aureus ATCC 29213 = type: cell-based
[7] = Salmonella pullorum C 7913, MHB, 37 °C, peptides 0-256 μM, triplicate samples
[8] = E. coli ATCC25922, peptide treated 1 h at 100 °C
[9] = E. coli ATCC25922, peptide treated with 1 mg/mL papain, 1 h, 37 °C
[10] = E. coli ATCC25922, peptide treated with 1 mg/mL pepsin, 1 h, 37 °C
[11] = E. coli ATCC25922, peptide treated with 1 mg/mL protease K, 1 h, 37 °C
[12] = E. coli ATCC25922, untreated peptides
[13] = S. aureus ATCC 25923, MHB, 37 °C, 18 h, peptides 0-256 μM, triplicate samples
[14] = Salmonella typhimurium ATCC 14028, MHB, 37 °C, 18 h, peptides 0-256 μM, triplicate samples
[15] = Salmonella typhimurium C 7731, MHB, 37 °C, 18 h, peptides 0-256 μM, triplicate samples
[16] = S. epidermidis ATCC 12228, MHB, 37 °C, 18 h, peptides 0-256 μM, triplicate samples
[17] = S. aureus ATCC 29213, MHB, 37 °C, 18 h, peptides 0-256 μM, triplicate samples

In the case of “KCRRWQWRMKK-NH2 [LFcinB18–28, reference compound]”, the MIC (E. coli UB 1005; E. coli UB 1005, MHB, 37 °C, 18 h, peptides 0-256 μM, triplicate samples) is reported as 128 µM, the MIC [1, 7] is reported as greater than 128 µM and the “MIC in the presence of NH4+” value (E. coli ATCC25922; E. coli ATCC25922, 6 μM NH4Cl) is reported as 8 µM. For the same substance, the “MIC in the presence of Mg2+” value (E. coli ATCC25922; E. coli ATCC25922, 1 mM MgCl2) was 16 µM, the “MIC in the presence of Ca2+” value (E. coli ATCC25922; E. coli ATCC25922, 2.5 mM CaCl2) was 16 µM and the “MIC in the presence of Fe3+” value (E. coli ATCC25922; E. coli ATCC25922, 4 mM FeCl3) was 4 µM. The “MIC in the presence of K+” value (E. coli ATCC25922; E. coli ATCC25922, 4.5 mM KCl) was 16 µM, the “MIC in the presence of Zn2+” value (E. coli ATCC25922; E. coli ATCC25922, 8 mM ZnCl3) was 8 µM and the “MIC in the presence of Na+” value (E. coli ATCC25922; E. coli ATCC25922, 150 mM NaCl) was 16 µM. The “MIC following heating at 100 °C” value (E. coli ATCC25922; [8]) was 16 µM, the “MIC after Papain” value (E. coli ATCC25922; [9]) was greater than 128 µM and the “MIC after Pepsin” value (E. coli ATCC25922; [10]) was greater than 128 µM. For the same substance, the “MIC after Protease K” value (E. coli ATCC25922; [11]) was greater than 128 µM, the “MIC after Trypsin” value (E. coli ATCC25922; E. coli ATCC25922, 1 h, 37 °C) was greater than 128 µM and the “MIC, Control (enzymatic stability)” value (E. coli ATCC25922; [12]) was 16 µM. The “MIC, Control (thermal stability)” value (E. coli ATCC25922; [12]) was 16 µM, the “MIC, Control (salt stability)” value (E. coli ATCC25922; E. coli ATCC25922, untreated peptides, no added salt) was 16 µM and the MIC (S. aureus ATCC 25923; [13]) was 128 µM. The MIC [2, 14] was greater than 128 µM, the MIC [3] was greater than 128 µM and the “MHC (minimum hemolytic concentration)” value [4] was greater than 256 µM. For the same substance, the MIC [5, 15] was greater than 128 µM, the MIC (E. coli ATCC 25922; E. coli ATCC 25922, MHB, 37 °C, 18 h, peptides 0-256 μM, triplicate samples) was 16 µM and the MIC [6, 16] was greater than 128 µM. The MIC (S. aureus ATCC 29213; [17]) was greater than 128 µM.

In the case of KKRRWQWRRKK-NH2 [KK-KK], the MIC (E. coli UB 1005; UB 1005, 18 h) is reported as 32 µM, the MIC [1, 7] is reported as 128 µM and the “MIC in the presence of Ca2+” value (E. coli ATCC25922; ATCC25922, 18 h) is reported as 16 µM. The “MIC in the presence of Fe3+” value (E. coli ATCC25922; ATCC25922, 18 h) was 8 µM, the “MIC in the presence of K+” value (E. coli ATCC25922; ATCC25922, 18 h) was 16 µM and the “MIC in the presence of Mg2+” value (E. coli ATCC25922; ATCC25922, 18 h) was 64 µM. For the same substance, the “MIC in the presence of NH4+” value (E. coli ATCC25922; ATCC25922, 18 h) was 8 µM, the “MIC in the presence of Na+” value (E. coli ATCC25922; ATCC25922, 18 h) was 16 µM and the “MIC in the presence of Zn2+” value (E. coli ATCC25922; ATCC25922, 18 h) was 8 µM. For the same substance, the “MIC, Control (enzymatic stability)” value (E. coli ATCC25922; ATCC25922, 18 h) was 32 µM, the “MIC, Control (salt stability)” value (E. coli ATCC25922; ATCC25922, 18 h) was 32 µM and the “MIC, Control (thermal stability)” value (E. coli ATCC25922; ATCC25922, 18 h) was 32 µM. The “MIC following heating at 100 °C” value (E. coli ATCC25922; [8]) was greater than 128 µM, the “MIC after Papain” value (E. coli ATCC25922; [9]) was greater than 128 µM and the “MIC after Pepsin” value (E. coli ATCC25922; [10]) was greater than 128 µM. For the same substance, the “MIC after Protease K” value (E. coli ATCC25922; [11]) was greater than 128 µM, the “MIC after Trypsin” value (E. coli ATCC25922; E. coli ATCC25922, 1 h, 37 °C) was greater than 128 µM and the MIC (S. aureus ATCC 25923; [13]) was 128 µM. The MIC [2, 14] was greater than 128 µM, the MIC [3] was 128 µM and the MIC [5, 15] was greater than 128 µM. The MIC (E. coli ATCC 25922; ATCC25922, 18 h) was 32 µM, the MIC [6, 16] was greater than 128 µM and the MIC (S. aureus ATCC 29213; [17]) was greater than 128 µM.

With KWRRWQWRRWK-NH2 [KW-WK] the MIC (E. coli UB 1005; UB 1005, 18 h) was 8 µM, the MIC [1] was 16 µM and the “MIC after Papain” value (E. coli ATCC25922; ATCC25922, 1 h) was 8 µM. The “MIC after Pepsin” value (E. coli ATCC25922; ATCC25922, 1 h) was 16 µM, the “MIC after Protease K” value (E. coli ATCC25922; ATCC25922, 1 h) was 8 µM and the “MIC following heating at 100 °C” value (E. coli ATCC25922; ATCC25922, 1 h) was 4 µM. For the same substance, the “MIC in the presence of Ca2+” value (E. coli ATCC25922; ATCC25922, 18 h) was 8 µM, the “MIC in the presence of Fe3+” value (E. coli ATCC25922; ATCC25922, 18 h) was 4 µM and the “MIC in the presence of K+” value (E. coli ATCC25922; ATCC25922, 18 h) was 4 µM. The “MIC in the presence of Mg2+” value (E. coli ATCC25922; ATCC25922, 18 h) was 8 µM, the “MIC in the presence of NH4+” value (E. coli ATCC25922; ATCC25922, 18 h) was 8 µM and the “MIC in the presence of Na+” value (E. coli ATCC25922; ATCC25922, 18 h) was 8 µM. For the same substance, the “MIC in the presence of Zn2+” value (E. coli ATCC25922; ATCC25922, 18 h) was 8 µM, the “MIC, Control (enzymatic stability)” value (E. coli ATCC25922; ATCC25922, 18 h) was 4 µM and the “MIC, Control (salt stability)” value (E. coli ATCC25922; ATCC25922, 18 h) was 4 µM. The “MIC, Control (thermal stability)” value (E. coli ATCC25922; ATCC25922, 18 h) was 4 µM, the “MIC after Trypsin” value (E. coli ATCC25922; E. coli ATCC25922, 1 h, 37 °C) was greater than 128 µM and the MIC (S. aureus ATCC 25923; ATCC 25923, 18 h) was 32 µM. It also gave an MIC ([2]; ATCC 14028, 18 h) of 32 µM, an MIC [3] of 128 µM and an MIC ([5]; murium C 7731, 18 h) of 16 µM. The MIC (E. coli ATCC 25922; ATCC25922, 18 h) was 4 µM, the MIC ([6]; ATCC 12228, 18 h) was 8 µM and the MIC (S. aureus ATCC 29213; ATCC 29213, 18 h) was 8 µM.
